In ChEMBL document CHEMBL5518250, “Targeting KRAS Diversity: Covalent Modulation of G12X and Beyond in Cancer Therapy” (J Med Chem, 2024):

Assay: Binding affinity to human recombinant His-tagged KRAS G12C/C118S mutant (1 to 169 residues) expressed in Escherichia coli assessed as inhibition constant by fluorescence based analysis

C=CC(=O)N1CCN(c2nc(=O)n(-c3c(C)ccnc3C(C)C)c3nc(-c4c(O)cccc4F)c(F)cc23)[C@@H](C)C1 [SOTORASIB] showed a Ki of 86 µM.
